# Tests used:
# Format in all cases: binding
# [1] = molecular target: kinases (KINOMEscan panel) (Homo sapiens, UniProt P00519, Y253F); settings: kinase ABL1(Y253F)-phosphorylated; NEW KINOMEscan
# [2] = molecular target: T1, kinases (KINOMEscan panel) (Homo sapiens, UniProt Q8IVH8); settings: NEW KINOMEscan
# T1 sequence (Q8IVH8 1-894): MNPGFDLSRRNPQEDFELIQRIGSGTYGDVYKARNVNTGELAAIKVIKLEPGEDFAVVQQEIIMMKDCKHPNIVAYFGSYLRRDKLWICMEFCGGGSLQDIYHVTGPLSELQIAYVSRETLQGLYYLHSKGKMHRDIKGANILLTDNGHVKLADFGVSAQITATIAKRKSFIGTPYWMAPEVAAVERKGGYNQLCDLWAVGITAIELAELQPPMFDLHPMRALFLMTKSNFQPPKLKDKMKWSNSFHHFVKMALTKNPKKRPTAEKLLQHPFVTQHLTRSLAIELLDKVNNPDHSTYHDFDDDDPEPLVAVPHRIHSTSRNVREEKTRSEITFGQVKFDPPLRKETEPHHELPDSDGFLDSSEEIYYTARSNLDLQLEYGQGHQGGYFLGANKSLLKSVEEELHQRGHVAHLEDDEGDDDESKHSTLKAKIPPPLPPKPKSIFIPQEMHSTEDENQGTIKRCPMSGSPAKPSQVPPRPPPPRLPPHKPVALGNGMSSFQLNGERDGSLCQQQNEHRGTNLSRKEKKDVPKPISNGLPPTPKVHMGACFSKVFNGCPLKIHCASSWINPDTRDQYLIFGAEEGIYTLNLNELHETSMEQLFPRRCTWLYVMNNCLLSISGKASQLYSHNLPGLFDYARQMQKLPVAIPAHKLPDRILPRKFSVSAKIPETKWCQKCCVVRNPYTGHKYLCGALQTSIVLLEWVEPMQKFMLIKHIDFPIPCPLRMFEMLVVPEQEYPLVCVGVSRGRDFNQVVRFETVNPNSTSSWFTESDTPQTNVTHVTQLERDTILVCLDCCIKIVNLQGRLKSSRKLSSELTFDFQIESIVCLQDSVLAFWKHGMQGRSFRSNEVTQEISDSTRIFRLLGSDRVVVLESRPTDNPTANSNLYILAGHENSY
# [3] = molecular target: kinases (KINOMEscan panel) (Homo sapiens, UniProt P50750); settings: kinase CDK9; NEW KINOMEscan
# [4] = molecular target: T2, kinases (KINOMEscan panel) (Homo sapiens, UniProt P57058); settings: kinase HUNK; NEW KINOMEscan
# T2 sequence (P57058 1-714): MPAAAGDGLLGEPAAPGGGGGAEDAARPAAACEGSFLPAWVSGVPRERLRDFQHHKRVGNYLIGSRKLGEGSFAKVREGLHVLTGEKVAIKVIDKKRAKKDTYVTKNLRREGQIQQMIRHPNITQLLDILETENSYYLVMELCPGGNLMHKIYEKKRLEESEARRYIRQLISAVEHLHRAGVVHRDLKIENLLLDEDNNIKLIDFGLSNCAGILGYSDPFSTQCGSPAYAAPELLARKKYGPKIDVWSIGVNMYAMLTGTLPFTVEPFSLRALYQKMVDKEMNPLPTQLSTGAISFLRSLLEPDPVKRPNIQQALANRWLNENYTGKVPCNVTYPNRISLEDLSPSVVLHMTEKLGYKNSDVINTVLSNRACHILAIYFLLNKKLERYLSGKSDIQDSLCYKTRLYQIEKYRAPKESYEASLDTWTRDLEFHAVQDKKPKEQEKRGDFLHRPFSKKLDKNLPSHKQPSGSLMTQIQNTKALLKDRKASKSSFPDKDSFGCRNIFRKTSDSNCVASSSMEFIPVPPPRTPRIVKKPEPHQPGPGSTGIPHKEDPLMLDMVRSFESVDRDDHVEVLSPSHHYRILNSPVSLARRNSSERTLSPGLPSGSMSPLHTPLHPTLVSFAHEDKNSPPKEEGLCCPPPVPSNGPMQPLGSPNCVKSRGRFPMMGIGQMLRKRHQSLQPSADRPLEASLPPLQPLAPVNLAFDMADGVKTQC
# [5] = molecular target: kinases (KINOMEscan panel) (Homo sapiens, UniProt Q13555); settings: CAMK2G; NEW KINOMEscan
# [6] = molecular target: T3, kinases (KINOMEscan panel) (Homo sapiens, UniProt O15111)
# T3 sequence (O15111 1-745): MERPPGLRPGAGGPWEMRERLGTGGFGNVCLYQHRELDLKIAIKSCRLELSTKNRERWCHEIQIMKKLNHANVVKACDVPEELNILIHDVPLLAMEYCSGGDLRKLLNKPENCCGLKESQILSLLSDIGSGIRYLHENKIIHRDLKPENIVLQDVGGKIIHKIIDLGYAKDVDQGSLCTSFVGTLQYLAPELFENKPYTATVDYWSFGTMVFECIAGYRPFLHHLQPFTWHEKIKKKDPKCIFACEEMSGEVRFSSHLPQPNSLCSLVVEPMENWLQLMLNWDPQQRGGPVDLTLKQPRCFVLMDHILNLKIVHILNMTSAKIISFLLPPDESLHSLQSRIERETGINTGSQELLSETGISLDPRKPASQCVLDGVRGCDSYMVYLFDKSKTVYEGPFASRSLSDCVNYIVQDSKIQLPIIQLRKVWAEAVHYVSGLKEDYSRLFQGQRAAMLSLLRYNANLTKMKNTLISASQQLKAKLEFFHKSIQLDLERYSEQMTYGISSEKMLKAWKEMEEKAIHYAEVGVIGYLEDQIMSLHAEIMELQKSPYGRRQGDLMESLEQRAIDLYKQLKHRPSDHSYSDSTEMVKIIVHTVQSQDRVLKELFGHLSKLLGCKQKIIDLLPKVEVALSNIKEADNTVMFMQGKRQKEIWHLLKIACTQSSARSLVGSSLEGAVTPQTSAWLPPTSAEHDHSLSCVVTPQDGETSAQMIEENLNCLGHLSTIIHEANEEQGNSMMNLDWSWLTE
# Chain of kinases (KINOMEscan panel) (Homo sapiens, UniProt Q13555) (Q13555 whole entry): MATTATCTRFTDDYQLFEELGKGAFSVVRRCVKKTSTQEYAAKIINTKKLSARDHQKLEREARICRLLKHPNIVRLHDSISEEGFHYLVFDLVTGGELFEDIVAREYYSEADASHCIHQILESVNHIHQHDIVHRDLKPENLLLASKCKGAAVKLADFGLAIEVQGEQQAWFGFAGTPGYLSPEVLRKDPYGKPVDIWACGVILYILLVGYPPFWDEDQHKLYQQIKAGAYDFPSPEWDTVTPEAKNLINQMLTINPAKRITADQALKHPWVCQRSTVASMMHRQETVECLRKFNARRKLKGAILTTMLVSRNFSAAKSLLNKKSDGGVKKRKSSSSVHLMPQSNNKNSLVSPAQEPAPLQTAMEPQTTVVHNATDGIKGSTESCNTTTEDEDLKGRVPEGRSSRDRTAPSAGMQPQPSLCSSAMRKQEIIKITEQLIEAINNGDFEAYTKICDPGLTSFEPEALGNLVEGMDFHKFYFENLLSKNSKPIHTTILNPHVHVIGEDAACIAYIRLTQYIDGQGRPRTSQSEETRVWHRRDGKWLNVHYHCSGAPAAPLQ
# Chain of kinases (KINOMEscan panel) (Homo sapiens, UniProt P50750) (P50750 whole entry): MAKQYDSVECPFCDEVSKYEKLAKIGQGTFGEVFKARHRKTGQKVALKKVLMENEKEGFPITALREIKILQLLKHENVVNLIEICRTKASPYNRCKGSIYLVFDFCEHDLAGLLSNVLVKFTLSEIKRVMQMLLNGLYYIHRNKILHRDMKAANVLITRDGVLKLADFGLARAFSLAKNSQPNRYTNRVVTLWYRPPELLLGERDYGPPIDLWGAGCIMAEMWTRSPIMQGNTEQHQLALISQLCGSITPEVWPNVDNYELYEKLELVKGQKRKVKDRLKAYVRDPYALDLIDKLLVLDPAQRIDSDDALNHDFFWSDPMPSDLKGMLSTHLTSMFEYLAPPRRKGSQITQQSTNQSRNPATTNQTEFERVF
Compound,KINOMEscan ABL1(Y253F)-phosphorylated [1],KINOMEscan MAP4K3 [2],KINOMEscan CDK9 [3],KINOMEscan HUNK [4],KINOMEscan CAMK2G [5],KINOMEscan CHUK/IKK-alpha [6]
Cc1cccc(-c2nc(Nc3ccc4nn(C)cc4c3)c3ccccc3n2)n1 [NK167],0,20,8,0,0,0
Cc1cccc(-c2nc(N(C)c3ccc4ncsc4c3)c3ccccc3n2)n1 [NK-161],0,22,4,4,0,20

# Reference: PMC9851200, “Multiparameter phenotypic screening for endogenous TFEB and TFE3 translocation identifies novel chemical series modulating lysosome function” (Autophagy, 2022)
